Three compounds from US20240010989A1, “MEDIUM FOR CULTURING AND EXPANDING NEPHRON PROGENITOR CELLS, METHOD FOR CULTURING AND EXPANDING NEPHRON PROGENITOR CELLS, AND METHOD FOR PRODUCING RENAL ORGANOIDS” (Kyoto University, priority 2021, published 2024) can be followed below.

Common to all, as to assay type: cell-based, human
Assay [1] deals with hNPC (Bulk). Put plainly: Production of renal organoids from subcultured hNPC (Bulk). The conditions noted are these: 3 nM in CFY medium, cells of passage 2. The protocol:
A cell mass of hNPC that had been subcultured in the test medium were placed in a Transwell (Corning), and the surrounding medium was removed. Next, the Transwell with the cell mass thereon was set in a culture dish that had been filled with 5% KSR (Kock-out Serum Replacement) (Thermo Fisher Scientific) to which 200 ng/mL of FGF2 and 5 μM of CHIR99021 had been added in advance. After 48 hours, the medium was replaced with 5% KSR containing no added growth factors or low-molecular weight compounds. Thereafter, the medium was replaced every 48 hours with fresh 5% KSR containing no added growth factors or low-molecular weight compounds, and on the 10th day after starting the differentiation culture, the cells were fixed for 3 hours at 4° C. using 4% PFA without removal from the Transwell. Following fixing, the medium was replaced with PBS, and after standing overnight at 4° C., immunostaining was conducted.
Bright field images of renal organoids were captured using either a KEYENCE BZ-X700 or a confocal microscope (Zeiss LSM710). Image analysis was performed using Image J version 1.51j8 (National Institutes of Health) (C. A. Schneider, et al., Nat Methods. 9 (2012) 671 to 675.).
Attempts were made to produce renal organoids from hNPC (Bulk) that had been subcultured using either the hNPSR medium or the CFY medium.

In assay [2] the test system is hNPC (c-MET(+)). In words: Expression of NPC markers OSR1 and SIX2 in subcultured hNPC (c-MET(+)). Particulars: 3 nM in CFY medium, subculture of hNPC (c-MET(+)). The protocol: (§1) Ten μL of human-HGFR/c-MET antibody to which the fluorescent substance APC had been bound (FAB 3582A, R&D Systems Inc.) was added to 100 μL of the 2% FBS suspension of the induced hNPC cells prepared above, and the resultant was left to stand for 30 minutes on ice. After 30 minutes, the sample was centrifuged at 200 g for 5 minutes, the supernatant was removed, the residue was washed with 1 mL of PBS, and the sample was once again centrifuged at 200 g for 5 minutes and the supernatant removed. This operation was conducted twice. […]
(§2) A cell mass of the human iPS cell-derived NPC (hNPC) cultured in the test medium was transferred to a 1.5 ml tube, the supernatant was removed completely, 30 μL of Accumax (Innovative Cell Technologies, Inc.) was added, and the resultant was left to stand for 10 minutes in an incubator at 37° C. and 5% CO2. After 10 minutes, the sample was suspended in 470 μL of 10% FBS, and the cell count was measured with a TC20 (Bio-Rad Laboratories, Inc.). […] Subsequently, 48 hours after this additional administration, the above operations were repeated, with the cell count being measured and a subculture conducted.
(§3) Expression of OSR1 and SIX2 was confirmed by conducting a culture test using these human iPS cells, and detecting the respective fluorescence from the GFP and tdTomato using a fluorescence microscope. […]

Assay [3] deals with hNPC (Bulk). In words: Cell growth (cell count, cumulative cell count) of hNPC (Bulk). The conditions noted are these: 3 nM in CFY medium (CFY+TG(3)) vs CFY+DMSO. The procedure: The hNPC were suspended in 50 μL of a test medium in sufficient amount to achieve 2.0×10^4 cells per well, and the suspension was then used to inoculate a low-attachment 96-well plate (Nunc), and following centrifuging at 300 g for 3 minutes, the cells were subjected to a static culture in an incubator at 37° C. and 5% CO2. Six hours after starting the static culture, a cell mass had formed.
(§4) Subsequently, 48 hours after the start of the static culture, an additional 100 μL of the same medium as that used at the time of cell inoculation was administered to each well. […] After 10 minutes, the sample was suspended in 470 μL of 10% FBS, and the cell count was measured with a TC20 (Bio-Rad Laboratories, Inc.).
as §2, with “conducted. […]” for “conducted.”

The subject of assay [4] is hNPC (Bulk). In words: Expression of NPC markers SIX2 and OSR1 in subcultured hNPC (Bulk). The conditions noted are these: 3 nM in CFY medium, subculture of hNPC (Bulk). The procedure: A cell mass of the human iPS cell-derived NPC (hNPC) cultured in the test medium was transferred to a 1.5 ml tube, the supernatant was removed completely, 30 μL of Accumax (Innovative Cell Technologies, Inc.) was added, and the resultant was left to stand for 10 minutes in an incubator at 37° C. and 5% CO2. After 10 minutes, the sample was suspended in 470 μL of 10% FBS, and the cell count was measured with a TC20 (Bio-Rad Laboratories, Inc.). The human iPS cell-derived NPC were suspended in the test medium and then used to inoculate a low-attachment 96-well plate (Nunc) in an amount of 2.0×10^4 cells per well. This low-attachment 96-well plate that had been inoculated with the cells was centrifuged at 300 g for 3 minutes, and the cells were then subjected to static culture in an incubator at 37° C. and 5% CO2. Then, 48 hours after starting this static culture, an additional 100 μL of the test medium was administered to each well. Subsequently, 48 hours after this additional administration, the above operations were repeated, with the cell count being measured and a subculture conducted.
as §3

Assay [5] concerns hNPC (c-MET(+)). Put plainly: Production of renal organoids from subcultured hNPC (c-MET(+)). The conditions noted are these: 3 nM in CFY medium, cells of passage 1. The procedure:
Ten μL of human-HGFR/c-MET antibody to which the fluorescent substance APC had been bound (FAB 3582A, R&D Systems Inc.) was added to 100 μL of the 2% FBS suspension of the induced hNPC cells prepared above, and the resultant was left to stand for 30 minutes on ice. After 30 minutes, the sample was centrifuged at 200 g for 5 minutes, the supernatant was removed, the residue was washed with 1 mL of PBS, and the sample was once again centrifuged at 200 g for 5 minutes and the supernatant removed. This operation was conducted twice. The cells obtained following removal of the supernatant were suspended in DAPI that had been diluted 1,000-fold with 2% FBS, and following filtration through a 40 μm filter, flow cytometry was used to extract the c-MET-positive cells.
A cell mass of hNPC that had been subcultured in the test medium were placed in a Transwell (Corning), and the surrounding medium was removed. Next, the Transwell with the cell mass thereon was set in a culture dish that had been filled with 5% KSR (Kock-out Serum Replacement) (Thermo Fisher Scientific) to which 200 ng/mL of FGF2 and 5 μM of CHIR99021 had been added in advance. After 48 hours, the medium was replaced with 5% KSR containing no added growth factors or low-molecular weight compounds. […]

Assay [6] has as its system hNPC (c-MET(+)). Put plainly: Cell growth (cumulative cell count) in subculture of hNPC (c-MET(+)). The conditions noted are these: 3 nM in CFY medium vs CFY+DMSO. The protocol:
as §1, §4
A cell mass of the human iPS cell-derived NPC (hNPC) cultured in the test medium was transferred to a 1.5 ml tube, the supernatant was removed completely, 30 μL of Accumax (Innovative Cell Technologies, Inc.) was added, and the resultant was left to stand for 10 minutes in an incubator at 37° C. and 5% CO2. After 10 minutes, the sample was suspended in 470 μL of 10% FBS, and the cell count was measured with a TC20 (Bio-Rad Laboratories, Inc.). […]

The test system of the next assay is hiPSC. Put plainly: Differentiation induction efficiency of SIX2-positive cells, hNPC from hiPSC (differentiation induction method B). The protocol: <Method for Differentially Inducing hNPC from hiPSC (Differentiation Induction Method B)> • 1. Undifferentiated hiPSC were converted to single cells using a TrypLE Select Enzyme (Gibco), and then using a medium prepared using DMEM/F12 Glutamax (Invitrogen) supplemented with B27 as the basal medium and adding 1 μM of CHIR99021, 10 nM of retinoic acid, 1 ng/ml of BMP4, 100 ng/ml of FGF2, 10 μM of Y-27632 and iMatrix-511 (Nippi) to this basal medium, plating was conducted at a density within a range from 1.0×10^4 cells/well to 5.0×10^4 cells/well, and the cells were then incubated for 24 hours at 37° C. (production of a late posterior epiblast: step 1). • 2. On day 1, medium replacement was conducted using a medium prepared by adding 5 μM of CHIR99021, 1 ng/ml of BMP7 and 100 ng/ml of FGF2 to the same basal medium as above (production of a mesodermal-lineage primitive streak: step 2). • 3. On day 2, medium replacement was conducted using a medium prepared by adding 5 μM of CHIR99021, 1 ng/ml of BMP7, 100 ng/ml of FGF2 and 10 μM of A83-01 to the same basal medium as above (production of a mesodermal-lineage late primitive streak: step 3). • 4. On day 3, medium replacement was conducted using a medium prepared by adding 5 μM of CHIR99021, 100 ng/ml of FGF2, 1 ng/ml of BMP7, 10 ng/ml of activin A and 30 μM of Y-27632 to the same basal medium (production of a metanephric-lineage late primitive streak: step 4). • 5. On day 6, medium replacement was conducted using a medium prepared by adding 100 nM of retinoic acid, 200 ng/ml of FGF9 and 25 ng/ml of Noggin to the same basal medium (production of a late posterior intermediate mesoderm: step 5). • 6. On day 8, medium replacement was conducted using a medium prepared by adding 1 μM of CHIR99021 and 200 ng/ml FGF9 to the same basal medium (production of hNPC: step 6).

`Cc1cnc(Nc2ccc(OCCN3CCCC3)cc2)nc1Nc1cccc(S(=O)(=O)NC(C)(C)C)c1` [TG101348]: the renal organoid formation entry in the assay on hNPC (Bulk) [1] and with hNPC (c-MET(+)) [5] was “formed” in each case. The “expression of both OSR1 and SIX2” value in the assay on hNPC (c-MET(+)) [2] and with hNPC (Bulk) [4] was “maintained up until passage 3” in each case. Also, the “cell growth (cell count)” value in the assay on hNPC (Bulk) [3] is recorded as “promoted more”. The “cell growth (cumulative cell count)” value with hNPC (c-MET(+)) [6] is “better promoted in all passages”.

For the compound heparin, the hNPC induction efficiency result in the assay on hiPSC (0.18 U/ml (1 μg/ml) heparin added with FGF2 in step 4) and in the assay on hiPSC (0.18 U/ml (1 μg/ml) heparin added with FGF9 in step 5) was “no effect” each time.

Turning to “FGF2: fibroblast growth factor 2 (basic FGF)”, the “induction efficiency into hNPC” value in the assay with hiPSC (FGF2 concentration in step 4 reduced to 10 ng/mL or less) is “decreased”. In addition, the hNPC induction efficiency result with hiPSC (concentration of FGF2 in step 3 varied (100, 30, 10 ng/ml)) is given as “no effect”.
